# Patent US20250025440A1, “COMPOSITIONS AND METHODS FOR MANAGEMENT OF HUMAN PAPILLOMA VIRUS-ASSOCIATED CANCERS” (LOMA LINDA UNIVERSITY, priority 2021, published 2025)
# Like-named read-outs stand apart in the source and are kept apart here.
# Columns and labels:
# [1] = system: SCC104 (HPV+ HNSCC cell line); experiment: MTT cell viability of gambogic acid analogs; type: cell-based; settings: for rank among highest IC50s relative to the parent compound: SCC104, MTT
# Description: Next, the analogs were evaluated for functional activity using the HPV^+ HNSCC cell line, SCC104, in the MTT assay as described previously to determine whether similar findings would be observed as in the in vitro AlphaScreen™ analysis. With one exception, the patterns were similar to the AlphaScreen™ data, but the differences were relatively more pronounced in the cell-based screen (FIG. 6B). […] Based on these findings, 30-hydroxygambogic acid (GA-OH) was selected as a candidate for more extensive functional studies.
# (§1) Using the SciFinder and Zinc15 databases, several gambogic acid structural analogs were identified and selected. The 8 analogs were obtained as follow: gambogenic amide (Enzo Life Sciences), gambogenic acid (Selleckchem), morellic acid (Aobious), 30-hydroxy gambogic acid (Quality Phytochemicals, LLC), acetyl gambogic acid (Microsource), and gambogin, neogambogic acid and isomorellinol (MolPort Natural Products). Additional gambogic acid was purchased from Tocris. The interactions of the analogues with E6-caspase 8 was tested using AlphaScreen™ technology using the same protocol as with the primary screen, and were compared to the parent compound. The effect on cell viability was also similarly done in HPV^+ and HPV^− cell lines via the MTT assay (see below) and potency was determined using GraphPad IC50 curve fitting.
# (§2) All working concentrations were diluted in PBS to the desired concentration before use. To test the effect of gambogic acid and/or its derivatives on cell viability, all cell lines were seeded at 2×10^4 per well in 96-well plates and allowed to adhere overnight. Various concentrations of the analogues were added and the cells incubated at 37° C. for 24 hr. Viability was then measured using the MTT assay, performed as described previously. All experiments were repeated at least three times (three biological replicates, carried out on different days). Data presented are from a representative experiment. Cell viability and potency were assessed from % inhibition relative to the vehicle control, and IC50 dose curves were generated using GraphPad Prism.
# [2] = target: T1, full-length HPV E6 binding to human Caspase 8 (Human papillomavirus type 16, UniProt P03126); settings: for inhibition of E6-caspase 8 binding relative to GA: SAR analogs
# T1 construct: made in house; host or cells: E. coli
# Description: Three structurally diverse libraries (Prestwick library, Microsource Spectrum library and an in-house collection at Kansas University; see Table 1) were screened for the ability of compounds to inhibit the binding of full-length HPV E6 to human Caspase 8 using a previously optimized AlphaScreen™ protocol.
# The compounds were diluted to a working concentration in DMSO and screened at a single-point final concentration of 10 μM with no replicates. Briefly, 75 nL of each compound was transferred and added to wells of the destination 384-well plate using the Echo dispenser to 4 μL of blocking solution. 4 μL of 800 nM GST-E6 and 4 μL of His6-Caspase 8 were added and pre-incubated at room temperature for 60 minutes. 8 μL of the donor and acceptor bead mixture (final concentration of 20 μg/ml) was then added. The plates were sealed and incubated for 4 hours at room temperature before the plates were read using the Envision™ Multi-Label plate reader (Perkin Elmer Inc.). […] A 10-point serial dilution of these compounds was done for dose-dependency reconfirmation. Dose response inhibition curves were constructed and IC50 calculated using GraphPad Prism using four parameter non-linear regression analysis.
# The first counter-screen assay was based using the GST-His6 fusion peptide as the E6-binding partner instead of GST-E6-His6-Caspase 8. Hit candidate compounds from the primary screen were prepared using a 6-point serial dilution. Using an Echo dispenser, compounds were transferred to plates containing 4 μL of blocking buffer. 8 μL of 5 nM GST-His6 peptide substrate was then added. The mixture was pre-incubated at room temperature for 60 minutes. Glutathione donor and nickel chelate acceptor beads (final concentration 20 μg/mL) were added and incubated for another 60 minutes at room temperature. Dose-dependency of the compounds using GST-E6-His6-Caspase 8 was performed in parallel using the same protocol as in the primary screen. The signals were then read using the Envision™ plate reader.
# as §1
# [3] = target: T2, E6 binding to E6AP (GST-E6 and His6-E6AP) (Human papillomavirus type 16, UniProt P03126); experiment: AlphaScreen E6-E6AP binding (cross-validation); settings: head to head comparison gambogic acid vs myricetin; read-out: IC50 against E6-E6AP
# T2 construct: made in house; host or cells: E. coli (stated for GST-E6 only)
# Description: Its activity was then cross-validated by performing additional AlphaScreening™ tests using GST-E6 and His6-E6AP as substrates. […] The activity of these two inhibitors against E6-Caspase 8 binding were evaluated in parallel for a head to head comparison.
# The selected compound(s) were then cross-validated with a related but different primary screen assay. Specifically, the caspase 8 used in the primary screen was replaced with E6AP and the inhibitory activity was evaluated against E6 binding to E6AP (E6-E6AP) using the same steps as in the AlphaScreen™ protocol described above.
# [4] = system: HPV- (SCC19, SCC29) and HPV+ (SCC47, SCC104, SCC152) HNSCC cell lines; experiment: Sensitization of HNSCC cell lines to photon radiation; type: cell-based; settings: radiation 0-4Gy followed by inhibitor; DER10
# Description: The dose enhancement ratio for 10% survival (DER10) was calculated as follows: DER10=(Dose correlated with 10% survival fraction in radiation-treated cells)/(Dose correlated with 10% survival fraction in radiation and inhibitor treated cells).
# CCDP, Cetuximab, and GA-OH were evaluated for their ability to sensitize HNSCC cell lines to photon radiation.
# Colonies were counted after 14-21 days and normalized to vehicle control and survival analysis was performed.
# Sensitization of an additional HPV^+ cell line to radiation by CDDP, Cetuximab and GA-OH was evaluated.
# [5] = system: HPV+ (SCC47, SCC090, SCC104, SCC152) and HPV- (SCC19, SCC29, SCC49, SCC84) HNSCC cell lines; experiment: MTT cell viability, HNSCC panel; type: cell-based
# Description: While SAR studies using the SCC104 cell line provided evidence of the activity of the analogs, further studies were conducted to assess not just the potency, but also the selectivity. As a step towards that goal, the efficacy of GA-OH was evaluated in a panel containing both HPV^+ and HPV^− HNSCC cell lines using MTT cell viability assays. Four HPV^+ cell lines (SCC47, SCC090, SCC104, SCC152) and four HPV^− cell lines (SCC19, SCC29, SCC49, SCC84) were utilized. GA-OH behaved dose dependently in cell lines both with or without HPV. […] FIGS. 7A-7C are graphical representations of the sensitivity of HPV^+ cell lines and HPV^− cell lines to GA-OH-mediated growth inhibition. FIG. 7A is a graphical representation of the cell growth inhibition of HNSCC HPV^+ and HPV^− cell lines by GA-OH (+ and closed shapes represent HPV^+ cell lines and − and open shapes the HPV^− cell lines). […] These cells were good controls, as HPV is an established causative agent in CC carcinogenesis. Two HPV^+ cell lines, SiHa and CaSki were selected as the positive controls and the Saos-2 cell line was used as an HPV-negative control. […] FIG. 7B is a graphical representation of the cell growth inhibition of cervical cancer HPV^+ and HPV^− cell lines by GA-OH. HPV^+ cell lines display higher sensitivity than do HPV^− cell lines as shown by the leftwards shift of the HPV^+ curves (SCC47, 90, 104, 152 in FIG. 7A and SiHa and CaSki in FIG. 7B).
# as §2, with “All experiments were repeated at least three times (three biological replicates, carried out on different days). Data presented are from a representative experiment.” left out
# [6] = toxicities to organs only at high concentrations; cited from earlier work
# T1 sequence (P03126 whole entry): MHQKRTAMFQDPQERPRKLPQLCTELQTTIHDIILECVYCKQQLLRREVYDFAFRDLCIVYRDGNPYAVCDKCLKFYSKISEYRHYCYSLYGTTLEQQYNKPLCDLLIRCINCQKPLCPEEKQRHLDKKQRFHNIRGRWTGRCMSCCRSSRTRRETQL
# T2 sequence (P03126 whole entry): as above
smiles,measurement,setting,value
"CC(=O)Oc1c2c(c(CC=C(C)C)c3c1C(=O)C1=C[C@@H]4CC5C(C)(C)OC(C/C=C(\C)C(=O)O)(C4=O)[C@@]15O3)OC(C)(CCC=C(C)C)C=C2 (stereo partly shown) [analog #8, acetyl iso-gambogic acid]",potency in MTT assay,"[1]; SCC104, 24 hr",diminished activity
same,inhibition of E6-caspase 8 binding relative to GA,[2],did not significantly affect the activity
"CC(C)=CCCC1(C)CC(O)c2c(O)c3c(c(CC=C(C)C)c2O1)OC12C(=CC4CC1C(C)(C)OC2(C/C=C(\C)C(=O)O)C4=O)C3=O (stereo not shown) [analog #5, neo-gambogic acid]",rank among highest IC50s relative to the parent compound,[1],fourth
"CC(C)=CCc1c2c(c(O)c3c1O[C@]14C(=C[C@@H]5C[C@H]1C(C)(C)O[C@@]4(C/C=C(/C)C(=O)O)C5=O)C3=O)C=CC(C)(C)O2 [analog #2, morellic acid]",inhibition of E6-caspase 8 binding relative to GA,[2],did not significantly affect the activity
"O=c1c(O)c(-c2cc(O)c(O)c(O)c2)oc2cc(O)cc(O)c12 [myricetin, reference compound]",IC50,[3],5600 nM
same,IC50,[2]; read-out: IC50 against E6-Caspase 8,4.6 µM
"CC(C)=CCCC1(C)C=Cc2c(O)c3c(c(CC=C(C)C)c2O1)O[C@]12C(=CC4C[C@H]1C(C)(C)OC2(CC=C(C)C)C4=O)C3=O (stereo partly shown) [analog #6, gambogin]",rank among highest IC50s relative to the parent compound,[1],first
"[NH2][Pt]([NH2])([Cl])[Cl] [CDDP, cisplatin, reference compound]",sensitization to photon radiation,[4],greatest sensitization
"CC(C)=CCC[C@]1(C)C=Cc2c(O)c3c(c(CC=C(C)C)c2O1)O[C@]12C(=C[C@@H]4CC1C(C)(C)O[C@@]2(C/C=C(/C)C(N)=O)C4=O)C3=O [analog #4, gambogic amide]",inhibition of E6-caspase 8 binding relative to GA,[2],did not significantly affect the activity
"CC(C)=CCC/C(C)=C/Cc1c(O)c(CC=C(C)C)c2c(c1O)C(=O)C1=C[C@@H]3C[C@H]4C(C)(C)O[C@@](C/C=C(/C)C(=O)O)(C3=O)[C@@]14O2 [analog #3, gambogenic acid]",rank among highest IC50s relative to the parent compound,[1],third
CC(C)=CCC[C@]1(C)C=Cc2c(O)c3c(c(CC=C(C)C)c2O1)O[C@]12C(=C[C@@H]4C[C@H]1C(C)(C)O[C@@]2(C/C=C(/C)C(=O)O)C4=O)C3=O [gambogic acid],potency and selectivity for HPV+ versus HPV- cells,[5],significantly more sensitive
same,tolerability in animal studies,[6],relatively tolerable
same,IC50,[3],1700 nM
same,IC50,"[2]; 11 compounds that passed counter-screening, read-out: IC50 (μM) against E6-Caspase 8 binding",2 µM
same,IC50,"[2]; head to head comparison gambogic acid vs myricetin, read-out: IC50 against E6-Caspase 8",1.9 µM
"CC(C)=CCc1c2c(c(O)c3c1OC14C(=CC5CC1C(C)(C)OC4(C/C=C(\C)CO)C5=O)C3=O)C=CC(C)(C)O2 (stereo not shown) [analog #7, iso morellinol]",inhibition of E6-caspase 8 binding relative to GA,[2],did not significantly affect the activity
